We go through 22 molecules from patent publication US8546395B2, “6-cycloamino-3-(1H-pyrrolo[2,3-b]pyridin-4-yl)imidazo[1,2-b]pyridazine derivatives, preparation thereof and therapeutic use thereof” (Sanofi, priority 2008, dated 2013).

Structures are written as SMILES. Counter-ions that a name gives are not always drawn.

As a reminder, the melting point is the temperature of the solid-liquid transition.

For `CC(C)(CO)N1CCN(c2ccc3nc(-c4ccc(F)cc4)c(-c4ccnc5[nH]ccc45)n3n2)CC1` [Compound 19, 2-{4-[2-(4-Fluorophenyl)-3-(1H-pyrrolo[2,3-b]pyridin-4-yl)imidazo[1,2-b]pyridazin-6-yl]piperazin-1-yl}-2-methylpropan-1-ol], the melting point was > 250 °C. Next, `Cc1cc(N2CCN(CCO)CC2)nn2c(-c3ccnc4[nH]ccc34)c(-c3ccc(F)cc3)nc12` [Compound 13, 2-{4-[2-(4-Fluorophenyl)-8-methyl-3-(1H-pyrrolo[2,3-b]pyridin-4-yl)imidazo[1,2-b]pyridazin-6-yl]piperazin-1-yl}ethanol]: 239 to 242 °C; `Cc1cc(N2C[C@H]3CN(CCO)C[C@H]3C2)nn2c(-c3ccnc4[nH]ccc34)c(-c3ccc(F)cc3)nc12` [Compound 31, (cis)-2-{5-[2-(4-Fluorophenyl)-8-methyl-3-(1H-pyrrolo[2,3-b]pyridin-4-yl)imidazo[1,2-b]pyridazin-6-yl]hexahydropyrrolo[3,4-c]pyrrol-2(1H)-yl}ethanol]: 271 to 275 °C. Next, `CN1C[C@@H]2CN(c3ccc4nc(-c5ccc(F)cc5)c(-c5ccnc6[nH]ccc56)n4n3)C[C@@H]2C1` [Compound 28, (cis)-2-(4-Fluorophenyl)-6-(5-methylhexahydropyrrolo[3,4-c]pyrrol-2(1H)-yl)-3-(1H-pyrrolo[2,3-b]pyridin-4-yl)imidazo[1,2-b]pyridazine]: 238 to 239 °C. As for `CC(C)(O)CCN1CCN(c2ccc3nc(-c4ccc(F)cc4)c(-c4ccnc5[nH]ccc45)n3n2)CC1` [Compound 23, 4-{4-[2-(4-Fluorophenyl)-3-(1H-pyrrolo[2,3-b]pyridin-4-yl)imidazo[1,2-b]pyridazin-6-yl]piperazin-1-yl}-2-methylbutan-2-ol], the melting point lay within 73 to 75 °C. `C[C@@H]1CN(c2ccc3nc(-c4ccc(F)cc4)c(-c4ccnc5[nH]ccc45)n3n2)C[C@H](C)N1` [Compound 11, 6-[(cis)-3,5-Dimethylpiperazin-1-yl]-2-(4-fluorophenyl)-3-(1H-pyrrolo[2,3-b]pyridin-4-yl)imidazo[1,2-b]pyridazine] yielded a melting point of 288 to 290 °C. Next, `CC(C)N1CCN(c2ccc3nc(-c4ccc(F)cc4)c(-c4ccnc5[nH]ccc45)n3n2)CC1` [Compound 14, 2-(4-Fluorophenyl)-6-(4-isopropylpiperazin-1-yl)-3-(1H-pyrrolo[2,3-b]pyridin-4-yl)imidazo[1,2-b]pyridazine]: 271 to 273 °C; `Cc1cc(N2C[C@H]3CCCN(C)[C@H]3C2)nn2c(-c3ccnc4[nH]ccc34)c(-c3ccc(F)cc3)nc12` [Compound 32, 2-(4-Fluorophenyl)-8-methyl-6-((4aR,7aR)-1-methyloctahydro-6H-pyrrolo[3,4-b]pyridin-6-yl)-3-(1H-pyrrolo[2,3-b]pyridin-4-yl)imidazo[1,2-b]pyridazine]: > 260 °C; `Cc1cc(N2CCNC(c3ccccc3)C2)nn2c(-c3ccnc4[nH]ccc34)c(-c3ccc(F)cc3)nc12` (stereo not shown) [Compound 26, 2-(4-Fluorophenyl)-8-methyl-6-[3-phenylpiperazin-1-yl]-3-(1H-pyrrolo[2,3-b]pyridin-4-yl)imidazo[1,2-b]pyridazine]: 253 to 257 °C.

Regarding `Cc1cc(N2CCNC3(CCCC3)C2)nn2c(-c3ccnc4[nH]ccc34)c(-c3ccc(F)cc3)nc12` [Compound 18, 6-(6,9-Diazaspiro[4.5]dec-9-yl)-2-(4-fluorophenyl)-8-methyl-3-(1H-pyrrolo[2,3-b]pyridin-4-yl)imidazo[1,2-b]pyridazine], the melting point lay within 293 to 299 °C. `OCCN1C[C@@H]2CN(c3ccc4nc(-c5ccc(F)cc5)c(-c5ccnc6[nH]ccc56)n4n3)C[C@@H]2C1` [Compound 30, (cis)-2-{5-[2-(4-Fluorophenyl)-3-(1H-pyrrolo[2,3-b]pyridin-4-yl)imidazo[1,2-b]pyridazin-6-yl]hexahydropyrrolo[3,4-c]pyrrol-2(1H)-yl}ethanol] returned a melting point of 175 to 180 °C. In the case of `Cc1cc(N2CCN(CCO)CC2)nn2c(-c3ccnc4[nH]ccc34)c(-c3cccc(F)c3)nc12` [Compound 12, 2-{4-[2-(3-Fluorophenyl)-8-methyl-3-(1H-pyrrolo[2,3-b]pyridin-4-yl)imidazo[1,2-b]pyridazin-6-yl]piperazin-1-yl}ethanol], the melting point fell in the range of 201 to 203 °C. Turning to `Cc1cc(N2CCN(C(C)C)CC2)nn2c(-c3ccnc4[nH]ccc34)c(-c3ccc(F)cc3)nc12` [Compound 15, 2-(4-Fluorophenyl)-6-(4-isopropylpiperazin-1-yl)-8-methyl-3-(1H-pyrrolo[2,3-b]pyridin-4-yl)imidazo[1,2-b]pyridazine], the melting point fell in the range of 285 to 291 °C.

`Cc1cc(N2CCN(CC(C)(C)O)CC2)nn2c(-c3ccnc4[nH]ccc34)c(-c3cccc(F)c3)nc12` [Compound 21, 1-{4-[2-(3-Fluorophenyl)-8-methyl-3-(1H-pyrrolo[2,3-b]pyridin-4-yl)imidazo[1,2-b]pyridazin-6-yl]piperazin-1-yl}-2-methylpropan-2-ol]: the melting point is > 270 °C. On to `Cc1cc(N2CCNC(C)(C)C2)nn2c(-c3ccnc4[nH]ccc34)c(-c3cccc(F)c3)nc12` [Compound 9, 6-(3,3-Dimethylpiperazin-1-yl)-2-(3-fluorophenyl)-8-methyl-3-(1H-pyrrolo[2,3-b]pyridin-4-yl)imidazo[1,2-b]pyridazine], for which the melting point lay in the range of 270 to 273 °C. Next, `Cc1cc(N2CCNC(C)(C)C2)nn2c(-c3ccnc4[nH]ccc34)c(-c3ccc(F)cc3)nc12` [Compound 10, 6-(3,3-Dimethylpiperazin-1-yl)-2-(4-fluorophenyl)-8-methyl-3-(1H-pyrrolo[2,3-b]pyridin-4-yl)imidazo[1,2-b]pyridazine]: > 300 °C. Consider `CN1C[C@@H]2C[C@H]1CN2c1ccc2nc(-c3ccc(F)cc3)c(-c3ccnc4[nH]ccc34)n2n1` [Compound 34, 2-(4-Fluorophenyl)-6-((1S,4S)-5-methyl-2,5-diazabicyclo[2.2.1]hept-2-yl)-3-(1H-pyrrolo[2,3-b]pyridin-4-yl)imidazo[1,2-b]pyridazine], for which the melting point fell in the range of 148 to 168 °C. Next, `Cc1cc(N2CCN(CC(C)(C)O)CC2)nn2c(-c3ccnc4[nH]ccc34)c(-c3ccc(F)cc3)nc12` [Compound 22, 1-{4-[2-(4-Fluorophenyl)-8-methyl-3-(1H-pyrrolo[2,3-b]pyridin-4-yl)imidazo[1,2-b]pyridazin-6-yl]piperazin-1-yl}-2-methylpropan-2-ol]: 265 to 268 °C. Next, `Fc1ccc(-c2nc3ccc(N4CCN[C@H](c5ccccc5)C4)nn3c2-c2ccnc3[nH]ccc23)cc1` (as salt: HCl) [Compound 24, (R)-2-(4-Fluorophenyl)-6-[3-phenylpiperazin-1-yl]-3-(1H-pyrrolo[2,3-b]pyridin-4-yl)imidazo[1,2-b]pyridazine]: 215 °C (dec.); `Fc1ccc(-c2nc3ccc(N4CCN[C@@H](c5ccccc5)C4)nn3c2-c2ccnc3[nH]ccc23)cc1` (as salt: HCl) [Compound 25, (S)-2-(4-Fluorophenyl)-6-[3-phenylpiperazin-1-yl]-3-(1H-pyrrolo[2,3-b]pyridin-4-yl)imidazo[1,2-b]pyridazine]: 215 °C (dec.); `Cc1cc(N2C[C@@H]3CCCN(C)[C@@H]3C2)nn2c(-c3ccnc4[nH]ccc34)c(-c3ccc(F)cc3)nc12` [Compound 33, 2-(4-Fluorophenyl)-8-methyl-6-((4aS,7aS)-1-methyloctahydro-6H-pyrrolo[3,4-b]pyridin-6-yl)-3-(1H-pyrrolo[2,3-b]pyridin-4-yl)imidazo[1,2-b]pyridazine]: > 260 °C. Next, `Fc1ccc(-c2nc3ccc(N4CCN(Cc5ccccc5)CC4)nn3c2-c2ccnc3[nH]ccc23)cc1` [Compound 27, 6-(4-Benzylpiperazin-1-yl)-2-(4-fluorophenyl)-3-(1H-pyrrolo[2,3-b]pyridin-4-yl)imidazo[1,2-b]pyridazine]: 274 to 278 °C.
